For orientation: IC50 means the concentration that gives 50% inhibition. For orientation: EC50 means the midpoint of the concentration-response curve. For orientation: AC50 means the midpoint of the concentration-response curve, whichever way the signal moves.

The structures appear in SMILES notation. Calls of active or inactive are those of the source.

The values that follow come from ChEMBL document CHEMBL1201862, “PubChem BioAssay data set” (2004).

In one test the target is Major prion protein (Homo sapiens, UniProt P04156). In kind it is functional, cell-based.
Test [1] deals with T1, 1-phosphatidylinositol 4,5-bisphosphate phosphodiesterase gamma-1 (Homo sapiens, UniProt P19174).
T1 sequence (P19174 whole entry): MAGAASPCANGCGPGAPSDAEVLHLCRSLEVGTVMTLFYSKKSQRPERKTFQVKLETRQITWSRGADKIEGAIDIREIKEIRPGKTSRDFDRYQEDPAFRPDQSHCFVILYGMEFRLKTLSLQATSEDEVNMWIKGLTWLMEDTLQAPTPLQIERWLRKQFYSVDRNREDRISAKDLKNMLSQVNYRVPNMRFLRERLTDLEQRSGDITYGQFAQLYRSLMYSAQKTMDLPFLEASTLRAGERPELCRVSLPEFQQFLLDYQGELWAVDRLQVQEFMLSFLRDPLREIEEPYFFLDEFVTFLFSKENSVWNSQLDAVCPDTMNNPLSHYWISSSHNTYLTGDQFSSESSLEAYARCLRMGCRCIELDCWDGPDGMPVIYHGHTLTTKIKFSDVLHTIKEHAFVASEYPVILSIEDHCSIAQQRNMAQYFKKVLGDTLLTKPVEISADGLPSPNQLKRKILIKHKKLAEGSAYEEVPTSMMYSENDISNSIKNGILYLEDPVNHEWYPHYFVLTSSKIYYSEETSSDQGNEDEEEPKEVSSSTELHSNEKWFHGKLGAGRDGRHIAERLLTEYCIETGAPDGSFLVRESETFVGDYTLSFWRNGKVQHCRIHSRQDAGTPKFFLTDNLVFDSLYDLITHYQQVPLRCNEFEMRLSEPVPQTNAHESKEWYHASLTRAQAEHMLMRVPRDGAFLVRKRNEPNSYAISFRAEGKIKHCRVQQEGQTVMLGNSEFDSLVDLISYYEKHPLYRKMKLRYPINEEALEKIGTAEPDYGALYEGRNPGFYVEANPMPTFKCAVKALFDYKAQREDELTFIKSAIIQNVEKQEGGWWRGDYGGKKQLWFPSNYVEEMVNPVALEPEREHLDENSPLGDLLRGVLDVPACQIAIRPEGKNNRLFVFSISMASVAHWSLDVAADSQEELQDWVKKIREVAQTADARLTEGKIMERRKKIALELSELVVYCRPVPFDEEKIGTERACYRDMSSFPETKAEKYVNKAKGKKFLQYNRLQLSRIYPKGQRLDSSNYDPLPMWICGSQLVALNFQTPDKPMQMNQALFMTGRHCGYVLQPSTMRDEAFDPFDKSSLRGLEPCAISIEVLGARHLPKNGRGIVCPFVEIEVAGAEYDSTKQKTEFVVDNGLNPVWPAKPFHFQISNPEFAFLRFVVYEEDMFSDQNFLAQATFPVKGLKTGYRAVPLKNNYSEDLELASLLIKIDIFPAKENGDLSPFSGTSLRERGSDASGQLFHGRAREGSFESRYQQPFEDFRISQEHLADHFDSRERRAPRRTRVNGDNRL
The test can be described thus: Counterscreen for inhibitors of phospholipase C isozymes (PLC-B3): Fluorescence-based biochemical high throughput dose response assay to identify inhibitors of phospholipase C isozymes (PLC-gamma1). Background: Counterscreens check selectivity or assay interference.

The target in test [2] is T2, 1-phosphatidylinositol 4,5-bisphosphate phosphodiesterase beta-3 (Homo sapiens, UniProt Q01970).
T2 sequence (Q01970 whole entry): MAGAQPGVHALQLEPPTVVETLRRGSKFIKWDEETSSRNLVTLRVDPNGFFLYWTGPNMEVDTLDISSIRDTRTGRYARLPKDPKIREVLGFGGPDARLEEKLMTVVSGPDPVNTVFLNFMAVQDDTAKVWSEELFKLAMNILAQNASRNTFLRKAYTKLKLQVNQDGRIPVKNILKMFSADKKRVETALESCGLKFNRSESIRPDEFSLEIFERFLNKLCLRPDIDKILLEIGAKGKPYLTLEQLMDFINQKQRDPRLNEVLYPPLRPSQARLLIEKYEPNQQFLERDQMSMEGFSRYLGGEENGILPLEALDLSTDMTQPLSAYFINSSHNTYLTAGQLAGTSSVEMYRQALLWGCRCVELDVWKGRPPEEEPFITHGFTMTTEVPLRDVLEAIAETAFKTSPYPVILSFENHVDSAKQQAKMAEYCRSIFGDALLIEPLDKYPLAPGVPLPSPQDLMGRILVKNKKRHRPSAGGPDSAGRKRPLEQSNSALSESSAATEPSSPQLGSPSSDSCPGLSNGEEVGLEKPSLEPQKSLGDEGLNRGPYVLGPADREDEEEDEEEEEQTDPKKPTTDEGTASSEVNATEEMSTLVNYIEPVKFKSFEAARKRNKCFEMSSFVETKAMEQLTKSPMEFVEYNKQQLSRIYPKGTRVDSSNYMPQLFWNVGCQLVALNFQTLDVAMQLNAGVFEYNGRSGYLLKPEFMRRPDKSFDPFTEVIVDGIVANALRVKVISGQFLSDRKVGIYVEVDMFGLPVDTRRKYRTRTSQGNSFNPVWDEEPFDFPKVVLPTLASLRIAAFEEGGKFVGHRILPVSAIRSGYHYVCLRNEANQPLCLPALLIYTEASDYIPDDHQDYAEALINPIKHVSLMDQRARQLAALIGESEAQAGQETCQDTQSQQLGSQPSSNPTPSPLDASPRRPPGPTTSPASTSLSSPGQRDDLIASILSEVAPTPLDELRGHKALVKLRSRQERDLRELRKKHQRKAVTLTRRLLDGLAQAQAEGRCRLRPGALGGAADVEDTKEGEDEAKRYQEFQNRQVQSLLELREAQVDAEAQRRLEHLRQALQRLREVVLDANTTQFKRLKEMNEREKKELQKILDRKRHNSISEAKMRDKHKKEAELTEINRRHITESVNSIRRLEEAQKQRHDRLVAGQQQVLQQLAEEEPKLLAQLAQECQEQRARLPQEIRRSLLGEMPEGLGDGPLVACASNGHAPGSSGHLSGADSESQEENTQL
The test can be described thus: Fluorescence-based biochemical high throughput dose response assay to identify inhibitors of phospholipase C isozymes (PLC-B3).

The nature of test [3]: cytotoxicity toward NIH3T3 fibroblasts, dose response, counter-screen, cell-based, ATP luminescence, mouse fibroblasts (AID 2010).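 Further: cells exposed to compound for about 90 hours before reading.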 In kind it is functional.
Test [4] is described as follows: inhibitors of intracellular T. cruzi replication, confirmation, NIH3T3 host cells, beta-gal luminescence (AID 2044).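 Further: intracellular parasites grown in NIH/3T3 mouse fibroblasts as host cells; luminescent beta-galactosidase reporter signal from transgenic T. cruzi replicating inside host cells; inhibitors lower the luminescence signal.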 It is filed as functional, cell-based.
In another test the target is Paired box protein Pax-8 (Homo sapiens, UniProt Q06710). The test can be described thus: inhibitors of PAX8-driven TPO luciferase reporter, dose response, RMG-I cells, cherry-pick (AID 687027).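 Further: luciferase reporter driven by Pax8 target thyroperoxidase promoter measured by SteadyGlo luminescence.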 It is filed as functional, cell-based. Background: Reporter assays use an easily measured gene product as a stand-in for the process of interest.
Paired box protein Pax-8, sequence (Q06710 whole entry): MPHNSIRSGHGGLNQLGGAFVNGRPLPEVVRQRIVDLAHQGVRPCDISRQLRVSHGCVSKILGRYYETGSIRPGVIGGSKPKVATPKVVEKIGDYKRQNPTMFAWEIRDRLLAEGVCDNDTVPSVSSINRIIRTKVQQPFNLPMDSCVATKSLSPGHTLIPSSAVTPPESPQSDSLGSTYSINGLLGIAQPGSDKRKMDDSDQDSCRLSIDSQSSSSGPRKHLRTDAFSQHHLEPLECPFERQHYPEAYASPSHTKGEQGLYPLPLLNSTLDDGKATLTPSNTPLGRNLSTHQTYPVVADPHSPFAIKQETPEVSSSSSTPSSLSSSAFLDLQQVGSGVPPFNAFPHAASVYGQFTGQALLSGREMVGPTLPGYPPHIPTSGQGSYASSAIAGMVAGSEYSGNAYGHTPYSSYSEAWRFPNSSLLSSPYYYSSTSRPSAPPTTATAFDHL
Test [5] concerns BJ. The test can be described thus: cytotoxicity toward BJ-TERT fibroblasts, dose response, cell-based, RAS-independent, luminescence (AID 1933). It is filed as functional. As to conditions: Homo sapiens.
A short description of test [6]: cytotoxicity toward DRD oncogenic fibroblasts, dose response, cell-based, non-viral oncogenic, luminescence (AID 1934). It is filed as functional. The settings on record: Homo sapiens.
Test [7] can be described thus: non-specific cell cytotoxicity, dose response, cytotoxicity control for PAX8 inhibitor project, plate reader, dry powder samples (AID 743021). In kind it is functional, cell-based.
The test system of test [8] is BJ. The test can be described thus: cells. It is filed as functional, cell-based. The settings on record: Homo sapiens.
A further test deals with T3, Protein RecA (Mycobacterium tuberculosis, UniProt P9WHJ3).
T3 sequence (P9WHJ3 whole entry): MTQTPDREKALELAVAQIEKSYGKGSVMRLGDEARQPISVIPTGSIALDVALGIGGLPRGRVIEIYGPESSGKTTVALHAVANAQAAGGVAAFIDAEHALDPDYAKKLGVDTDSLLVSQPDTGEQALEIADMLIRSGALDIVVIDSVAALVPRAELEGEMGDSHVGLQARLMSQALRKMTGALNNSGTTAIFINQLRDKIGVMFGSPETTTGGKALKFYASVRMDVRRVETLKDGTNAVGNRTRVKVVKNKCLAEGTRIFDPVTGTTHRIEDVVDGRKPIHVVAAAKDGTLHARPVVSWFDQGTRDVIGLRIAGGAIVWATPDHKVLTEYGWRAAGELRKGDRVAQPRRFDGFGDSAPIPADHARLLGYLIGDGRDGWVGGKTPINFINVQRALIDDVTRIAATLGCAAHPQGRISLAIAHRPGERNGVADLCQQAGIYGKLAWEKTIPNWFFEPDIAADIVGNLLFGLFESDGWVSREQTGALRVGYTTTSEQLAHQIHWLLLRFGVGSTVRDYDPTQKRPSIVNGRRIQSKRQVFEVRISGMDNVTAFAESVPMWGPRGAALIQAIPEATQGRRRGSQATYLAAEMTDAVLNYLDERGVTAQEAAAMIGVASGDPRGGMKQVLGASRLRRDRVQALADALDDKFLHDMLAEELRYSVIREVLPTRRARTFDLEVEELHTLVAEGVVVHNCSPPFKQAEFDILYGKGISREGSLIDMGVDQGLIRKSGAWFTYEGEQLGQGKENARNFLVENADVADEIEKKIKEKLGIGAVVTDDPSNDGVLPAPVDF
The test can be described thus: Fluorescence Cell-Free Homogeneous Dose Retest to Identify Inhibitors of RecA-Intein Splicing Activity. [Related pubchem assays (depositor defined):AID2097, AID2223, AID489010, AID492950]. In kind it is functional.

In test [9] the target is T4, Replicative DNA helicase DnaB (Mycobacterium tuberculosis, UniProt P9WMR3).
T4 sequence (P9WMR3 whole entry): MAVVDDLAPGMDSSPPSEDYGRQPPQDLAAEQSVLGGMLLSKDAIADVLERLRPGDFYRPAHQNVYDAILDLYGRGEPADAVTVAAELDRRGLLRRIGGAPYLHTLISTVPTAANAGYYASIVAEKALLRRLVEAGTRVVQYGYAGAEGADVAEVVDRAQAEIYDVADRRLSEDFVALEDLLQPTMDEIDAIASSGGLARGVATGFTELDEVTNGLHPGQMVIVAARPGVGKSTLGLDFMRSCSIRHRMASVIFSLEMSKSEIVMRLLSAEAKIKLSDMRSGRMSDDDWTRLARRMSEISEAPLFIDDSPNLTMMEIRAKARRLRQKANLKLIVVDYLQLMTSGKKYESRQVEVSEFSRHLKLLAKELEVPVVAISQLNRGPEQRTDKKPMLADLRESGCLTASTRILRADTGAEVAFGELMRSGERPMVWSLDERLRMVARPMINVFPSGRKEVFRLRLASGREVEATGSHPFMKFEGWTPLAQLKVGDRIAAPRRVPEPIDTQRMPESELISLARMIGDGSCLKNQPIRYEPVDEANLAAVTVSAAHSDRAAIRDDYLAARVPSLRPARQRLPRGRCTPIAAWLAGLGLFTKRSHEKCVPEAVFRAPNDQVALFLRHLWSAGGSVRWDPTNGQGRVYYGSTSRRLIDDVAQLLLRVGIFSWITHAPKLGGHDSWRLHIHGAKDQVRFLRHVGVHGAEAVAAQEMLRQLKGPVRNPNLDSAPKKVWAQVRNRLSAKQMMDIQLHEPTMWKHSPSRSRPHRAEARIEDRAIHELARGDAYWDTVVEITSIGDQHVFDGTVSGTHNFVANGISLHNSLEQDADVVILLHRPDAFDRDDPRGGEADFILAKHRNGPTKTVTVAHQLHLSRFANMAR
The test can be described thus: DnaB intein splicing inhibitors, dose response, biochemical, cell-free fluorescence (AID 449749). It is filed as functional.

Test [10] concerns BJ. The test can be described thus: cytotoxicity toward BJ-TERT-LT-ST fibroblasts, dose response, cell-based, RAS-independent, luminescence (AID 1935).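 Further: BJ fibroblasts immortalized with TERT plus LT and ST oncogenes.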 In kind it is functional. The settings on record: Homo sapiens.
Test [11] can be described thus: NIH:OVCAR-3 ovarian cancer cell cytotoxicity, dose response, PAX8 inhibitor project, plate reader, dry powder samples (AID 743044). It is filed as functional, cell-based.
A short description of test [12]: cytotoxicity in OVCAR8 ovarian cancer cells, dose response, PAX8 project, cell-based, plate reader, dry powder samples (AID 743197). In kind it is functional. As to conditions: OVCAR-8.
Test [13] can be described thus: A2780 ovarian cancer cell cytotoxicity, dose response, cytotoxicity control, plate reader, dry powder samples (AID 743046). In kind it is functional, cell-based.
The nature of test [14]: IGROV1 ovarian cancer cell cytotoxicity, dose response, PAX8 inhibitor project, plate reader, dry powder samples (AID 743043). It is filed as functional, cell-based. As to conditions: IGROV-1.

For `COc1ccccc1Cn1c(=S)[nH]c2ccc(F)cc2c1=O`, the IC50 on Major prion protein is 0.412 µM (active); in the test “cells”, > 138 µM (inactive).

With `CC(C)(C)C(=O)NNC(=O)COc1ccc2ccccc2c1Br`, the 50% inhibitory concentration (IC50) is 4.91 µM (active) on Major prion protein and > 138 µM (inactive) in “cells”.

`COc1ccccc1-c1cc(C(=O)Nc2ccc(F)cc2F)no1`: the IC50 in test [1] and in [2] was > 122 µM (inactive) in each case.

As for `CC(C)N(CC(=O)Nc1ccc(Cl)cc1C(F)(F)F)C(=O)CCl`, the EC50 in test [3] was 11.9 µM (active); in [4] it was 3.38 µM (active); in the test on BJ [5], 6.85 µM (inconclusive); in test [6], 6.62 µM (active); with BJ [8], 16.9 µM (active); on Protein RecA, 6.09 µM (active). In addition, the half-maximal effective concentration (EC50) with BJ [10] was > 150 µM (inconclusive). The AC50 on Paired box protein Pax-8 was 5.06 µM (active); in test [7], 10 µM (active); in test [9] it was < 0.018 µM (inconclusive).

For `COc1ccc(CN(C)C[C@H]2OCCCC[C@@H](C)Oc3ccc(NC(=O)Nc4ccc(F)cc4)cc3C(=O)N([C@@H](C)CO)C[C@@H]2C)cc1`, the half-maximal activity concentration (AC50) in test [11] was 33.8 µM (active); on Paired box protein Pax-8, 21.7 µM (active); in test [12], > 70 µM (inactive); in [7], 51.9 µM (active).

Regarding `C[C@@H]1CCCCO[C@H](CN(C)Cc2ccc(Cl)c(Cl)c2)[C@@H](C)CN([C@@H](C)CO)C(=O)c2cc(NC(=O)Nc3ccc(F)cc3)ccc2O1`, the AC50 in test [13] was 63.6 µM (active); in test [11] it was 51.3 µM (active); on Paired box protein Pax-8 it was 6.33 µM (active); in test [12], > 70 µM (inactive); in test [14] it was 29.6 µM (active).

Take `O=C(CCc1ccccc1)N[C@H]1[C@@H](OC(=O)c2cnccn2)CCC[C@@]12C(=O)N(Cc1ccccc1)c1ccccc12`: the IC50 in test [1] and in [2] was > 122 µM (inactive) in each case.
